According to patent publication US20130123222A1, “Synergistic Anti-Cancer Activity of SR16388 with Anti-Mitotic Drugs” (SRI INTERNATIONAL, INC., priority 2011, published 2013):

Experiments:
[1] = tested on: various cancer cell lines; assay: 11×7 synergism hit rate over all cell lines (by algorism); type: cell-based; conditions: for % Hit rate: combination with SR16388, identified by algorism, all cell lines; for interaction with SR16388 in 11×7 experiments: in combination with SR16388
From the text: (§1) SR16388 was synthesized in house.
(§2) Within the same type of cancer cells, some cell lines have more synergistic hits than others. Melanoma and breast cancer cell lines had the highest hit rate.

[2] = tested on: panel of 48 to 60 cell lines; assay: 5×4 combination screen with SR16388; synergism hit rate by algorithm (Z score); type: cell-based; conditions: in combination with SR16388, all 20 (5×4) dose combinations
Experimental: as §1
5) A “combination score” was assigned to each specific combination (Ca1b1x): C=1 if Za1b1x>3*SD and C=0 if Za1b1x≦3*SD score);
6) Hit rate of each combination was calculated by comparing the sum of the combination scores of all 20 (5×4) dose combinations with all cell lines to the total number of data points of that specific combination;
7) Hit rate were ranked from high to low to identify potential synergistic combinations.

[3] = tested on: A549; assay: 11×7 synergism hit rate; type: cell-based; conditions: NSCLC A549, combination with SR16388
From the text: as §1

[4] = tested on: OVCAR5; assay: 11×7 synergism hit rate; type: cell-based; conditions: Ovarian Cancer OVCAR5, combination with SR16388
From the text: as §1, §2

[5] = tested on: MDAMB231; assay: 11×7 synergism hit rate; type: cell-based; conditions: Breast Cancer MDAMB231, combination with SR16388
From the text: as §1, §2

[6] = tested on: LOXIMVI; assay: 11×7 synergism hit rate; type: cell-based; conditions: Melanoma LOXIMVI, combination with SR16388
From the text: as §1, §2

[7] = tested on: SF539; assay: 11×7 synergism hit rate; type: cell-based; conditions: CNS Cancer SF539, combination with SR16388
From the text: as §1, §2

[8] = tested on: HCC2998; assay: 11×7 synergism hit rate; type: cell-based; conditions: Colon Cancer HCC2998, combination with SR16388
From the text: as §1, §2

[9] = tested on: MDAMB435; assay: 11×7 synergism hit rate; type: cell-based; conditions: Melanoma MDAMB435, combination with SR16388
From the text: as §1, §2

[10] = tested on: MALME; assay: 11×7 synergism hit rate; type: cell-based; conditions: Melanoma MALME, combination with SR16388
From the text: as §1, §2

[11] = tested on: RPMI8226; assay: 11×7 synergism hit rate; type: cell-based; conditions: Leukemia RPMI8226, combination with SR16388
From the text: as §1, §2

[12] = tested on: SKOV3; assay: 11×7 synergism hit rate; type: cell-based; conditions: Ovarian Cancer SKOV3, combination with SR16388
From the text: as §1, §2

[13] = tested on: NCIH322M; assay: 11×7 synergism hit rate; type: cell-based; conditions: NSCLC NCIH322M, combination with SR16388
From the text: as §1, §2

[14] = tested on: MOLT4; assay: 11×7 synergism hit rate; type: cell-based; conditions: Leukemia MOLT4, combination with SR16388
From the text: as §1, §2

[15] = tested on: IGROV1; assay: 11×7 synergism hit rate; type: cell-based; conditions: Ovarian Cancer IGROV1, combination with SR16388
From the text: as §1, §2

[16] = tested on: MDAMB468; assay: 11×7 synergism hit rate; type: cell-based; conditions: Breast Cancer MDAMB468, combination with SR16388
From the text: as §1, §2

[17] = tested on: U251; assay: 11×7 synergism hit rate; type: cell-based; conditions: CNS Cancer U251, combination with SR16388
From the text: as §1, §2

[18] = tested on: T47D; assay: 11×7 synergism hit rate; type: cell-based; conditions: Breast Cancer T47D, combination with SR16388
From the text: as §1, §2

[19] = tested on: U031; assay: 11×7 synergism hit rate; type: cell-based; conditions: Renal Cancer U031, combination with SR16388
From the text: as §1, §2

[20] = tested on: NCIH522; assay: 11×7 synergism hit rate; type: cell-based; conditions: NSCLC NCIH522, combination with SR16388
From the text: as §1, §2

[21] = tested on: SW620; assay: 11×7 synergism hit rate; type: cell-based; conditions: Colon Cancer SW620, combination with SR16388
From the text: as §1, §2

[22] = tested on: panel of 48 to 60 cell lines; assay: 5×4 combination screen with SR16388, CellTiter-Glo viability; synergy by pattern recognition; conditions: for no effect (number of cell lines) / synergy (number of cell lines) / % synergy: in combination with SR16388, 5x4-T1; for no effect (number of cell lines) / synergy (number of cell lines): pattern recognition, of 60 cell lines incl. no data; for % synergy: share of cell lines with data
Experimental: Cells were treated with compounds alone or in combination for three days and CellTiter-Glo® Luminescent Cell Viability Assay (Promega Corp.) was used as the endpoint to measure cell viability.
Cells were cultured in DMEM with 10% fetal bovine serum and used between passage 2 and passage 20. Cells were harvested on Day-1 (FIG. 1A) and re-supspended to the corresponding seeding density and seeded with Wellmate (ThermoFisher) to 384 plates (BD or GBO).
40 mM Compound stocks in 100% DMSO were made. Master plates were made with Janus (PerkinElmer), then further diluted and added to the cell plates with Matrix Platemate (Thermo) on Day 0.
CellTiter-Glo® Luminescent Cell Viability Assay (Promega Corp.) was used to measure ATP as an indicator of viable cells on Day 3 using Envision (PerkinElmer) and back up reader Analyst HT (MDS) and Gen5 (BioTek).
Single point, 5×4 checkque board platemap was used in the initial screening.
Relative Luminescent Units (RLU) were plotted against corresponding drug concentrations and fitted with standard four parameter sigmoidal curve with custom coded R program or Calcusyn (Biosoft, Cambridge, UK).

| Compound | % Hit rate [1] | interaction with SR16388 in 11×7 experiments [1] | % Hit rate [4] | % Hit rate [5] | % Hit rate [6] | % Hit rate [7] | % Hit rate [8] | % Hit rate [9] | % Hit rate [10] | % Hit rate [11] | % Hit rate [12] | % Hit rate [13] | % Hit rate [14] | % Hit rate [15] | % Hit rate [16] | % Hit rate [17] | % Hit rate [18] | % Hit rate [19] | % Hit rate [20] | % Hit rate [21] | also measured |
| --- | --- | --- | --- | --- | --- | --- | --- | --- | --- | --- | --- | --- | --- | --- | --- | --- | --- | --- | --- | --- | --- |
| CC(=O)O[C@@]12CO[C@@H]1C[C@H](O)[C@@]1(C)C(=O)[C@H](O)C3=C(C)[C@@H](OC(=O)[C@H](O)[C@@H](NC(=O)OC(C)(C)C)c4ccccc4)C[C@@](O)([C@@H](OC(=O)c4ccccc4)[C@H]21)C3(C)C [Docetaxel] | 10.69% | synergistic effect | 1% | 10% | 8% | 13% | 6% | 14% | 6% | 1% | 12% | 14% | 13% | 3% | 6% | 12% | 19% | 4% | 8% | 8% | % hit/combo [2]: 0.58%; % Hit rate [3]: 4%; interaction with SR16388 in the screen of 30 cancer therapeutic agents [22]: Synergistic anti-proliferation; no effect (number of cell lines) [22]: 51; synergy (number of cell lines) [22]: 7; % synergy [22]: 12% |
| CC(=O)O[C@H]1C(=O)[C@@]2(C)[C@H]([C@H](OC(=O)c3ccccc3)[C@]3(O)C[C@H](OC(=O)[C@H](O)[C@@H](NC(=O)c4ccccc4)c4ccccc4)C(C)=C1C3(C)C)[C@]1(OC(C)=O)CO[C@@H]1C[C@@H]2O [Paclitaxel] | 14.88% | synergistic effect | 6% | 21% | 13% | 19% | 12% | 12% | 14% | 5% | 18% | 17% | 21% | 18% | 8% | 12% | 19% | 9% | 10% | 9% | interaction with SR16388 in the screen of 30 cancer therapeutic agents [22]: Synergistic anti-proliferation; no effect (number of cell lines) [22]: 18; synergy (number of cell lines) [22]: 40; % synergy [22]: 69% |
| CC[C@]1(O)C[C@@H]2CN(CCc3c([nH]c4ccccc34)[C@@](C(=O)OC)(c3cc4c(cc3OC)N(C)[C@H]3[C@@](O)(C(=O)OC)[C@H](OC(C)=O)[C@]5(CC)C=CCN6CC[C@]43[C@@H]65)C2)C1 [Vinblastine] | 4.94% | synergistic effect | 0% | 1% | 1% | 8% | 6% | 4% | 0% | 0% | 8% | 3% | 8% | 0% | 3% | 0% | 9% | 3% | 4% | 8% | % Hit rate [3]: 0% |
| CC[C@]1(O)C[C@H]2CN(CCc3c([nH]c4ccccc34)[C@@](C(=O)OC)(c3cc4c(cc3OC)N(C=O)[C@H]3[C@@](O)(C(=O)OC)[C@H](OC(C)=O)[C@]5(CC)C=CCN6CC[C@]43[C@@H]65)C2)C1 [Vincristine] | 10.91% | synergistic effect | 1% | 17% | 5% | 12% | 4% | 6% | 14% | 0% | 19% | 18% | 16% | 8% | 5% | 4% | 16% | 12% | 10% | 5% | % hit/combo [2]: 2.08%; % Hit rate [3]: 10%; interaction with SR16388 in the screen of 30 cancer therapeutic agents [22]: Synergistic anti-proliferation; no effect (number of cell lines) [22]: 19; synergy (number of cell lines) [22]: 23; % synergy [22]: 55% |
